# Data reported in patent publication US5622933A, “Multiple branch peptide constructions for use against HIV” (priority 1993, dated 1997).
# Ends that are not written are not given here.
# Test system: HIV-1 (89.6)
# Assay: Infection of and syncytia formation in human primary macrophages
# Format: cell-based
# Settings: 5×10^-5 M; 10,000 TCID50
# Description: MBPCs were also evaluated for their ability to block the infection of human primary macrophages by a highly cytopathic macrophage-tropic isolate, HIV-1 (89.6). Mononuclear cells were isolated from leukophoresis units enriched for monocytes by Ficoll-Hypaque density separation. Macrophages were purified by adherence to plastic in RPMI 1640 supplemented with 10% fetal calf serum and 5% human AB serum. […] 5×10^5 cells were treated for 45 minutes with the indicated MBPC at concentrations of 5×10^-5 M and subsequently exposed to 10,000 TCID50 of the macrophage-tropic isolate HIV (89.6). […] After thorough washing, the cells were fed again with medium and analyzed for HIV-1 p24^gag production and syncytia formation 4 days post-infection.
substance,measurement,value
"(RKSIHIGPGRAFYT)4 -(K)2 -K-βA-OH (also: four copies on lysine core (K)2-K-βA-OH) [MBPC.5, tetradecapeptide MBPC]","inhibition of macrophage infection, in words",able to inhibit infection
